Assay results published in BindingDB's records for doi:10.1002/cmdc.200500009 (Bayer Healthcare, 2006).

Biological target: T1, Endothelin-converting enzyme 1 (Rattus norvegicus, UniProt P42893)
T1 sequence (P42893 whole entry): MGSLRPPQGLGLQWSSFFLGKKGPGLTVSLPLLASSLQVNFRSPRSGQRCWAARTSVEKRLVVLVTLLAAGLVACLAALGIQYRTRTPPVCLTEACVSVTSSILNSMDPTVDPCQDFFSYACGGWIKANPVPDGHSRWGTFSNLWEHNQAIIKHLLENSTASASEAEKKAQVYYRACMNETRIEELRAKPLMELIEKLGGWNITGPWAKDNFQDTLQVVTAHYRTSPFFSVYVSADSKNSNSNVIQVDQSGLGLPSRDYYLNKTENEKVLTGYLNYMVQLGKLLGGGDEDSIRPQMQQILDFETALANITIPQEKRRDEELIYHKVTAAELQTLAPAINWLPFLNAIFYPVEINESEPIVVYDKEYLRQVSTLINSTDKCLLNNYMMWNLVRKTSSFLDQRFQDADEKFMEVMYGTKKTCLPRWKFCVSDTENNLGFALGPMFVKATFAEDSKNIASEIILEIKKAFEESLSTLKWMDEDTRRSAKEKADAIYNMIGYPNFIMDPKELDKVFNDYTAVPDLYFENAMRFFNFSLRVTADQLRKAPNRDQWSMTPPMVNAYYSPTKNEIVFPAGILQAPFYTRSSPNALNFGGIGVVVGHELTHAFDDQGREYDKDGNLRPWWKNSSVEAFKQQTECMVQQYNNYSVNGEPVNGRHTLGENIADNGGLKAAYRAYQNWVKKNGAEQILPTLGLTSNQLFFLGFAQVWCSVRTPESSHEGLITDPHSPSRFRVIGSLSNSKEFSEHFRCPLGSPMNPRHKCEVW
Assay: Inhibition Assay
Text: Inhibition assay using ECE.

SMILES	IC50
CC(C)(C)CC(=O)Nc1ccc2c(c1)cc(C(=O)Nc1ccc(Cl)nc1)n2Cc1ccccc1F [ECE Inhibitor, 9]	0.22 µM
CC(C)(C)CC(=O)Nc1ccc2c(c1)cc(C(=O)Nc1ccn[nH]1)n2Cc1ccccc1F	> 10 µM
CC(C)(C)CC(=O)Nc1ccc2c(c1)cc(C(=O)Nc1nc3ccccc3[nH]1)n2Cc1ccccc1F [ECE Inhibitor, 8]	> 10 µM
CC(C)(C)CC(=O)Nc1ccc2c(c1)cc(C(=O)Nc1cncc(C(=O)Nc3ccc(S(N)(=O)=O)cc3)c1)n2Cc1ccccc1F [ECE Inhibitor, 14]	0.01 µM
CC(C)(C)CC(=O)Nc1ccc2c(c1)cc(C(=O)Nc1ccccc1)n2Cc1ccccc1F [ECE Inhibitor, 6]	1.8 µM
CC(C)(C)CC(=O)Nc1ccc2c(c1)cc(C(=O)Nc1cccc(C(=O)Nc3ccc(S(N)(=O)=O)cc3)c1)n2Cc1ccccc1F	0.01 µM
CC(C)(C)CC(=O)Nc1ccc2c(c1)cc(C(=O)Nc1cncc(C(=O)O)c1)n2Cc1ccccc1F [ECE Inhibitor, 13]	0.18 µM
CC(C)(C)CC(=O)Nc1ccc2c(c1)cc(C(=O)Nc1ccc(S(=O)(=O)Nc3ccccn3)cc1)n2Cc1ccccc1F [ECE Inhibitor, 10]	0.41 µM
